# Laboratory results reported in US20100159030A1, “METHODS FOR DETECTING AND MODULATING THE SENSITIVITY OF TUMOR CELLS TO ANTI-MITOTIC AGENTS AND FOR MODULATING TURMORGENICITY” (NewSouth Innovations Pty Limited, priority 2007, published 2010).
# Assays:
# H460 cells = experiment: Apoptosis induction, Annexin V-FITC flow cytometry; format: cell-based, Human; details: 48 h
# Description: Annexin V-FITC staining followed by flow cytometry analysis was performed to address whether the increase in the sub-G1 population following exposure to tubulin-binding agents in the βIII-tubulin siRNA treated cells was related to an increase in apoptosis induction. Apoptosis induction was determined by transfecting H460 cells with siRNA for 72 h and harvesting (adherent and suspension) cells 48 h after drug treatment, as previously described in Pasquier et al., Mol Cancer Ther 2004; 3:1301-10. Briefly, 1×10^5 cells were incubated with Annexin V-FITC and propidium iodide for 15 min in the dark (Becton-Dickinson), immediately followed by flow cytometry using a FACSCalibur (Becton-Dickinson). Cytogram analysis was performed using CellQuest® software.
# CCRF-CEM Leukaemia cells = format: cell-based; details: 2ME2-resistant sublines
# Text: The tubulin-binding agent 2-methoxyestradiol (2ME2) binds to β-tubulin near the colchicine-binding site, inhibits microtubule polymerization, and induces mitotic arrest. CCRF-CEM Leukaemia cells that display increasing resistance to 2ME2 were selected, and four of the highly 2ME2 resistant leukaemia sublines were chosen for detailed analysis.
smiles,measurement,setting,value
"CC(=O)O[C@H]1C(=O)[C@@]2(C)[C@H]([C@H](OC(=O)c3ccccc3)[C@]3(O)C[C@H](OC(=O)[C@H](O)[C@@H](NC(=O)c4ccccc4)c4ccccc4)C(C)=C1C3(C)C)[C@]1(OC(C)=O)CO[C@@H]1C[C@@H]2O [Paclitaxel, paclitaxel]",concentration from which apoptosis is induced,H460 cells; control siRNA treated cells,≥ 5 nM
same,concentration from which apoptosis is induced,H460 cells; βIII-tubulin siRNA treated cells,≥ 1 nM
same,percentage of apoptotic cells,"H460 cells; βIII-tubulin siRNA vs control siRNA cells, paclitaxel 1, 2, 5 nM, cisplatin 0.4 or 1 μM",significantly higher
same,cross-resistance of the 2ME2-resistant cells,CCRF-CEM Leukaemia cells,not cross resistant
